Data: patent US6436996B1, “Modulation of nitric oxide production” (Duke University, priority 1997, dated 2002)
Entries after “also recorded” stand apart in the source; their conditions may differ.

System: human monocyte-derived macrophage cells
Experiment: Nitrite (NO) production in gamma-IFN-primed human monocyte-derived macrophages, Griess reaction
Assay type: cell-based
Conditions: for nitrite levels compared to poly I:C treatment alone: Aβ peptide (5 μM) plus APOE (10 nM) plus poly I:C (50 μg/ml); for change in nitrite levels compared to untreated human MDMs: Aβ peptide alone, 1 to 10 μgM
Protocol: Cell Cultures: Human monocytes from normal, adult volunteers were generously provided by Dr. D. Webb, Center for Biologics Evaluation and Research, NIH, Bethesda, Md. Elutriated monocytes were cultured in Dulbecco's Modified Eagle Medium (DMEM) containing 20% fetal calf serum, 10% human […] (ABI Technologies, Columbia, Md.) and […] human M-Colony Stimulating Factor (M-CSF, Genzyme, Boston, Mass.) at 37° C. in a humidified atmosphere of 5% CO2, 95% air. After 5 to 7 days, morphological changes including spreading and branching of the cells signaled differentiation from monocytes to macrophages and are now commonly called “Monocyte-Derived Macrophages” (MDMs). MDM cells were removed from the flasks by gentle trypsinization, plated at 40,000 cells/well into 96 well microtiter plates and allowed to recover overnight. These MDM cells were then primed by exposure to 1000 U/ml recombinant human gamma interferon (gamma-IFN, Sigma Chemical Co., St. Louis, Mo.) diluted into HL-1 serum free media (Hycor Biomedical Include, Irvine, Calif.). At the end of 12 h priming with gamma-IFN, the priming media was replaced with HL-1 serum free media before experimental treatments as listed in the text. Following experimental treatments, the media was removed and assayed for nitrite levels using the Griess reaction [Colton, C. et al., Mol. Chem. Neuropathol. 28, 15-20 (1996)].
Treatment Factors and Conditions: M-CSF-differentiated and gamma-IFN-primed monocyte-derived macrophage cells were treated by incubation with varying concentrations of Aβ 1-40, its reverse sequence Aβ 40-1 and a non-toxic Aβ fragment, Aβ 1-28 (Bachem, Torrance, Calif.). Aβ peptides were diluted into sterile, double-distilled water and allowed to aggregate at room temperature for 48 h and then stored at −80° C. until use. Human apolipoprotein-E purified protein (Chemicon International, Inc., Temecula, Calif.) was reconstituted in serum free media and added to cells. The double stranded polyribonucleotide, polyinosinic:polycytidylic acid (poly I:C potassium salt, Sigma Chemical Co., St. Louis, Mo.) was also reconstituted into serum free media and used to stimulate nitric oxide (NO) production as described by J. Snell et al., Journal of Leukocyte Biology, 62, 369 (1997).
Measurement of Nitric Oxide (NO): After treatment, conditioned media was removed from cells and the level of nitrite, which is a stable end-product of NO release in biological systems, measured using the Griess reaction [Colton, C., supra]. Briefly, conditioned media were transferred to a new 96 well microtiter plate and an equal volume of Griess reagents were added to each well. After 10 minutes of incubation at room temperature, color development was assessed at 550 nm using a plate reader. Nitrite levels are presented as μM/well which contained 40,000 cells and an average (±SEM) obtained for at least 4 wells assayed per experimental condition for each of at least 4 individual donors. Treatment with the nitric oxide synthase (NOS) inhibitor, N-G-methyl-l-arginine (L-NMMA) was used to determine the level of NOS-mediated NO production. Statistical significance was determined using a one way analysis of variance (ANOVA).

Aβ 1-28: non-toxic amyloid-βeta peptide fragment 1-28 (Bachem)
nitrite levels compared to poly I:C treatment alone (5 days): same result
change in nitrite levels compared to untreated human MDMs (5 days, gamma-IFN-primed MDMs): no significant change

APOE: Human apolipoprotein-E purified protein (Chemicon International), reconstituted in serum free media
overall increase in nitrite levels compared to untreated or APOE-alone treated MDMs (10 nM APOE together with 50 μg/ml poly I:C): 282%
increase in nitrite levels compared to poly I:C alone (10 nM APOE together with 50 μg/ml poly I:C, 5 days, p<0.009): 68%
nitrite levels compared to untreated controls (APOE alone, 1 nM to 100 nM, 5 days, gamma-IFN-primed MDMs): no significant increase
NO released compared to unprimed cells (APOE and poly I:C): ~3 fold

polyinosinic:polycytidylic acid [poly I:C]
increase in nitrite levels compared to untreated controls (gamma-IFN-primed MDMs, 50 μg/ml poly I:C alone, 5 days): 126%

boiled APOE: APOE denatured by boiling, control for non-denatured APOE
nitrite levels compared to poly I:C alone (boiled (denatured) APOE together with poly I:C, data not shown): unable to increase NO production

CNC(=N)NCCC[C@H](N)C(=O)O [L-NMMA, N-G-methyl-l-arginine]
effect of NOS inhibitor on nitrite levels (L-NMMA added to APOE plus poly I:C stimulated MDMs, data not shown): reduced nitrite levels to those seen in the unstimulated controls; also recorded: inhibitable

Aβ 1-40: toxic amyloid-βeta peptide 1-40 fragment of APP (Bachem), aggregated 48 h
nitrite levels compared to untreated control MDMs (Aβ 1-40 and APOE in the absence of poly I:C): no significant effect
nitrite levels compared to poly I:C treatment alone (5 days): no significant difference
change in nitrite levels compared to untreated human MDMs (5 days, gamma-IFN-primed MDMs): not significantly different; also recorded: no significant change
nitrite levels compared to poly I:C alone (Aβ peptide combined with 50 μg/ml poly I:C, 5 days): not significantly different
